{"source": "patent US8252522B2", "about": "“Species detection methods and systems” (The Regents of the University of California, priority 2007, dated 2012)", "key": {"bacterial spores [1]": {"tested_on": "bacterial spores", "settings": "within the duration of the mixing"}, "[2]": {"tested_on": "different bacteria (E. coli and two bacilli)", "experimental": "Kinetics of fluorescence enhancement of 64 μM THIA in the presence of different bacteria (10^6 cell/mL) in TRIS buffer, pH=8.5 (λex=420 nm, λem=470 nm). The time constants, τ, are inversely proportional to the rate constants, k=1/τ. The biexponential data fits assume pseudo-first-order processes. At about 50 s into the data acquisition, the bacteria are injected and into a stirred solution of the dye.\nTo simplify the kinetic analysis, the assays can be conducted under two types of extreme conditions that will assure that the first step, k1, can be approximated to pseudo-first-order process: (1) the dye is in excess to the binding sites on the bacterial surface; or (2) the binding sites on the bacterial surface are in excess to the dye. Under such conditions, the kinetics of fluorescence enhancement should manifest bi- (or multi-) exponential rises:\n[formula] where FM is the maximum fluorescence intensity (the saturation level on the curves); dt is the injection time; Fi are the pre-exponential coefficients; and ti are the time constants for the various processes: τi=1/ki. […]\nThe samples are illuminated at a region where the staining dye absorbs and the emission is monitored (the fluorescence intensity is recorded every second) at the wavelength maximum of the fluorescence spectrum of the dye (FIG. 2). […] This plateau emission maximum is what is measured with the regular staining procedures. […]"}, "[3]": {"tested_on": "bacterial spores vs vegetative bacteria", "settings": "microfluidic device, detection about few seconds after mixing", "procedure": "(§1) A solution of a benzothiazole dye, THIA, was used (FIG. 1a), in a continuous-flow microfluidic device for detection of bacterial species, as described for a terbium (III) different emission assay.\n(§2) For the steady-state experiments the dye is mixed with the samples and allowed to incubate for five minutes. In the microfluidic device, however, the dye is mixed with the bacterial sample and carried to the area for emission detection in about few seconds after the mixing."}, "bacterial spores [4]": {"tested_on": "bacterial spores", "settings": "steady-state, incubated for five minutes", "procedure": "as §1, §2"}}}
{"compound": "CCN1/C(=C/c2sc3ccccc3[n+]2CC)Sc2ccccc21.[I-]", "note": "[THIA, 3,3′-Diethylthiacyanine iodide]", "values": [{"measurement": "time of emission enhancement by bacterial spores", "setting": "bacterial spores [1]", "value": "within a second or less"}, {"measurement": "response to staining", "setting": "[2]; all three species", "value": "positive response"}, {"measurement": "duration of the emission intensity increase after initial mixing", "setting": "[2]; vegetative bacteria", "value": "continues to increase for several minutes"}, {"measurement": "signal from bacterial spores relative to signal from vegetative bacteria", "setting": "[3]", "value": "about 13 times"}, {"measurement": "increase in emission intensity in the presence of bacterial spores", "setting": "bacterial spores [4]", "value": "about an order of magnitude increase"}]}
